# Measurements from US8426408B2, “Pyrimidine inhibitors of kinases” (AbbVie Inc., priority 2009, dated 2013).
# Target: KDR (Homo sapiens, UniProt P35968)
# Assay: KDR cellular assay (KDR receptor phosphorylation ELISA)
# Assay type: cell-based
# Parameters: expressed in transfected cells; host or cells: 3T3 (embryonic mouse) cells
# Conditions: KDR transfected 3T3 (embryonic mouse) cells, VEGF stimulated; read-out: IC50 inhibition of KDR phosphorylation
# Summary of the method: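 KDR-transfected mouse 3T3 cells treated 20 min at 37° C with half-log compound dilutions, then stimulated 10 min with VEGF (100 ng/ml solution). Lysates captured on anti-KDR plates; phosphorylation by biotin antibody/streptavidin-HRP ELISA at 450 nm. IC50 by non-linear regression.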
# Sequence of KDR (P35968 20-1356): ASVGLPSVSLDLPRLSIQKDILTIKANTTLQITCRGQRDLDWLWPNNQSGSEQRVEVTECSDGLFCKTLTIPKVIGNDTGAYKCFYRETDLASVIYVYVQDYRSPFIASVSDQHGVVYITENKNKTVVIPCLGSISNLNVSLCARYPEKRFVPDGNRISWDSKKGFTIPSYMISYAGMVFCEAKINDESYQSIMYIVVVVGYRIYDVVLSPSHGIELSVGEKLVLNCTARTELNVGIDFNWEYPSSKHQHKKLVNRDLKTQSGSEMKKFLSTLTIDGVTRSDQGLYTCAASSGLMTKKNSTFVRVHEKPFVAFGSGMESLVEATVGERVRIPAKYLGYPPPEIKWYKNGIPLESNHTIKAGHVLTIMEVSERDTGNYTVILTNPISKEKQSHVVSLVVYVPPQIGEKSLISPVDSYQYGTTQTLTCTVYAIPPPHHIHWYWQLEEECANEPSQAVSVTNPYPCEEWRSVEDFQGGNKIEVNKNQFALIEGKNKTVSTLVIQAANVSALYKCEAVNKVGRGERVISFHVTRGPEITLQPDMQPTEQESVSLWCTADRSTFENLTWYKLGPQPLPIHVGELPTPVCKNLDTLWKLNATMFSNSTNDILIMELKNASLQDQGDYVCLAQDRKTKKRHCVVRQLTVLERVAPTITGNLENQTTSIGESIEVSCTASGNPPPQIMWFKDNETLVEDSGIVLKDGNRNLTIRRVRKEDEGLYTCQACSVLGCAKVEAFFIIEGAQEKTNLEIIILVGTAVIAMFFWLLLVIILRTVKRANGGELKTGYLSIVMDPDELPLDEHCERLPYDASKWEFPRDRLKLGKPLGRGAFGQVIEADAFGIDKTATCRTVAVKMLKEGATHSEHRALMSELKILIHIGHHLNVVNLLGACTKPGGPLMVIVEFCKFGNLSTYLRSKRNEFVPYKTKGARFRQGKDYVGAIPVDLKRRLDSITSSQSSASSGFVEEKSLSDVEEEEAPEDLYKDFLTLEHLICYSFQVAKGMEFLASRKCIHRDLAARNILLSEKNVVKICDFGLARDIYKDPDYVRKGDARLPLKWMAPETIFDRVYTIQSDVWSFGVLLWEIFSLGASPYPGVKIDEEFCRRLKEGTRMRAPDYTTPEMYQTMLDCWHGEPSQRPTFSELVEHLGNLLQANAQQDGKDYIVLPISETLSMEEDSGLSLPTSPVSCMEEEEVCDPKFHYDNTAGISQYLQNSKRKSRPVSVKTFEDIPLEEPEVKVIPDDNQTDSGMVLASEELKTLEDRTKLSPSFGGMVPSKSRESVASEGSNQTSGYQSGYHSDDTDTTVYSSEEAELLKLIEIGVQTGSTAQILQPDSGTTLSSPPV
row,Compound,IC50 [nM]
1,"NC(=O)[C@@H]1[C@H](Nc2nc(Nc3cnn(C4CCC4)c3)ncc2Br)[C@H]2C=C[C@@H]1C2 [Example 123, (1S,2S,3R,4R)-3-({5-bromo-2-[(1-cyclobutyl-1H-pyrazol-4-yl)amino]pyrimidin-4-yl}amino)bicyclo[2.2.1]hept-5-ene-2-carboxamide]",< 100
2,"NC(=O)[C@@H]1[C@H](Nc2nc(Nc3cnn(C[C@H](O)CO)c3)ncc2Cl)[C@H]2C=C[C@@H]1C2 [Example 124, (1S,2S,3R,4R)-3-{[5-chloro-2-({1-[(2S)-2,3-dihydroxypropyl]-1H-pyrazol-4-yl}amino)pyrimidin-4-yl]amino}bicyclo[2.2.1]hept-5-ene-2-carboxamide]",100 to 1000
3,"NC(=O)[C@@H]1[C@H](Nc2nc(Nc3cnn(CC4CCO4)c3)ncc2Cl)[C@H]2C=C[C@@H]1C2 (stereo partly drawn) [Example 129, (1S,2S,3R,4R)-3-[(5-chloro-2-{[1-(oxetan-2-ylmethyl)-1H-pyrazol-4-yl]amino}pyrimidin-4-yl)amino]bicyclo[2.2.1]hept-5-ene-2-carboxamide]",< 100
4,"NC(=O)[C@@H]1[C@H](Nc2nc(Nc3cnn(C[C@@H](O)CO)c3)ncc2Cl)[C@H]2C=C[C@@H]1C2 [Example 130, (1S,2S,3R,4R)-3-{[5-chloro-2-({1-[(2R)-2,3-dihydroxypropyl]-1H-pyrazol-4-yl}amino)pyrimidin-4-yl]amino}bicyclo[2.2.1]hept-5-ene-2-carboxamide]",100 to 1000
5,"NC(=O)[C@@H]1[C@H](Nc2nc(Nc3cnn(C[C@H](O)CO)c3)ncc2Br)[C@H]2C=C[C@@H]1C2 [Example 131, (1S,2S,3R,4R)-3-{[5-bromo-2-({1-[(2S)-2,3-dihydroxypropyl]-1H-pyrazol-4-yl}amino)pyrimidin-4-yl]amino}bicyclo[2.2.1]hept-5-ene-2-carboxamide]",100 to 1000
6,"Cn1cc(Nc2ncc(Br)c(Nc3ccccc3C3(O)CCC3)n2)cn1 [Example 132, 1-[2-({5-bromo-2-[(1-methyl-1H-pyrazol-4-yl)amino]pyrimidin-4-yl}amino)phenyl]cyclobutanol]",100 to 1000
7,"Cc1nn(C)cc1Nc1ncc(Cl)c(N[C@H]2[C@@H](C(N)=O)[C@@H]3C=C[C@H]2C3)n1 [Example 134, (1S,2S,3R,4R)-3-({5-chloro-2-[(1,3-dimethyl-1H-pyrazol-4-yl)amino]pyrimidin-4-yl}amino)bicyclo[2.2.1]hept-5-ene-2-carboxamide]",100 to 1000
8,"Cc1nn(C)cc1Nc1ncc(Br)c(N[C@H]2[C@@H](C(N)=O)[C@@H]3C=C[C@H]2C3)n1 [Example 135, (1S,2S,3R,4R)-3-({5-bromo-2-[(1,3-dimethyl-1H-pyrazol-4-yl)amino]pyrimidin-4-yl}amino)bicyclo[2.2.1]hept-5-ene-2-carboxamide]",< 100
9,"Cn1cc(Nc2ncc([N+](=O)[O-])c(N[C@H]3[C@@H](C(N)=O)[C@@H]4C=C[C@H]3C4)n2)cn1 [Example 139, (1S,2S,3R,4R)-3-({2-[(1-methyl-1H-pyrazol-4-yl)amino]-5-nitropyrimidin-4-yl}amino)bicyclo[2.2.1]hept-5-ene-2-carboxamide]",100 to 1000
10,"CCn1cc(Nc2ncc([N+](=O)[O-])c(N[C@H]3[C@@H](C(N)=O)[C@@H]4C=C[C@H]3C4)n2)cn1 [Example 140, (1S,2S,3R,4R)-3-({2-[(1-ethyl-1H-pyrazol-4-yl)amino]-5-nitropyrimidin-4-yl}amino)bicyclo[2.2.1]hept-5-ene-2-carboxamide]",100 to 1000
11,"NC(=O)[C@@H]1[C@H](Nc2nc(Nc3cnn(CCc4ccccc4)c3)ncc2Cl)[C@H]2C=C[C@@H]1C2 [Example 143, (1S,2S,3R,4R)-3-[(5-chloro-2-{[1-(2-phenylethyl)-1H-pyrazol-4-yl]amino}pyrimidin-4-yl)amino]bicyclo[2.2.1]hept-5-ene-2-carboxamide]",< 100
12,"Cn1cc(Nc2ncc(C(F)(F)F)c(Nc3ccsc3C(N)=O)n2)cn1 [Example 150, 3-({2-[(1-methyl-1H-pyrazol-4-yl)amino]-5-(trifluoromethyl)pyrimidin-4-yl}amino)thiophene-2-carboxamide]",100 to 1000

# The next lines start with the values.
row,IC50 [nM],Compound
1,< 100,"NC(=O)[C@@H]1[C@H](Nc2nc(Nc3cnn(Cc4ccccc4)c3)ncc2Cl)[C@H]2C=C[C@@H]1C2 [Example 144, (1S,2S,3R,4R)-3-({2-[(1-benzyl-1H-pyrazol-4-yl)amino]-5-chloropyrimidin-4-yl}amino)bicyclo[2.2.1]hept-5-ene-2-carboxamide]"
2,< 100,"NC(=O)[C@@H]1[C@H](Nc2nc(Nc3cnn(CCc4ccccc4)c3)ncc2Br)[C@H]2C=C[C@@H]1C2 [Example 148, (1S,2S,3R,4R)-3-[(5-bromo-2-{[1-(2-phenylethyl)-1H-pyrazol-4-yl]amino}pyrimidin-4-yl)amino]bicyclo[2.2.1]hept-5-ene-2-carboxamide]"
3,< 100,"NC(=O)[C@@H]1[C@H](Nc2nc(Nc3cnn(Cc4ccccc4)c3)ncc2Br)[C@H]2C=C[C@@H]1C2 [Example 149, (1S,2S,3R,4R)-3-({2-[(1-benzyl-1H-pyrazol-4-yl)amino]-5-bromopyrimidin-4-yl}amino)bicyclo[2.2.1]hept-5-ene-2-carboxamide]"
4,100 to 1000,"COc1cccc(CCn2cc(Nc3ncc(Cl)c(N[C@H]4[C@@H](C(N)=O)[C@@H]5C=C[C@H]4C5)n3)cn2)c1 [Example 154, (1S,2S,3R,4R)-3-{[5-chloro-2-({1-[2-(3-methoxyphenyl)ethyl]-1H-pyrazol-4-yl}amino)pyrimidin-4-yl]amino}bicyclo[2.2.1]hept-5-ene-2-carboxamide]"
5,< 100,"COc1cccc(Cn2cc(Nc3ncc(Cl)c(N[C@H]4[C@@H](C(N)=O)[C@@H]5C=C[C@H]4C5)n3)cn2)c1 [Example 155, (1S,2S,3R,4R)-3-[(5-chloro-2-{[1-(3-methoxybenzyl)-1H-pyrazol-4-yl]amino}pyrimidin-4-yl)amino]bicyclo[2.2.1]hept-5-ene-2-carboxamide]"
6,< 100,"NC(=O)[C@@H]1[C@H](Nc2nc(Nc3cnn(Cc4cccc(Cl)c4)c3)ncc2Cl)[C@H]2C=C[C@@H]1C2 [Example 157, (1S,2S,3R,4R)-3-[(5-chloro-2-{[1-(3-chlorobenzyl)-1H-pyrazol-4-yl]amino}pyrimidin-4-yl)amino]bicyclo[2.2.1]hept-5-ene-2-carboxamide]"
7,100 to 1000,"NC(=O)[C@@H]1[C@H](Nc2nc(Nc3cnn(CCc4cccc(Cl)c4)c3)ncc2Cl)[C@H]2C=C[C@@H]1C2 [Example 158, (1S,2S,3R,4R)-3-{[5-chloro-2-({1-[2-(3-chlorophenyl)ethyl]-1H-pyrazol-4-yl}amino)pyrimidin-4-yl]amino}bicyclo[2.2.1]hept-5-ene-2-carboxamide]"
8,< 100,"COc1cccc(Cn2cc(Nc3ncc(Br)c(N[C@H]4[C@@H](C(N)=O)[C@@H]5C=C[C@H]4C5)n3)cn2)c1 [Example 159, (1S,2S,3R,4R)-3-[(5-bromo-2-{[1-(3-methoxybenzyl)-1H-pyrazol-4-yl]amino}pyrimidin-4-yl)amino]bicyclo[2.2.1]hept-5-ene-2-carboxamide]"
9,< 100,"COc1cccc(CCn2cc(Nc3ncc(Br)c(N[C@H]4[C@@H](C(N)=O)[C@@H]5C=C[C@H]4C5)n3)cn2)c1 [Example 160, (1S,2S,3R,4R)-3-{[5-bromo-2-({1-[2-(3-methoxyphenyl)ethyl]-1H-pyrazol-4-yl}amino)pyrimidin-4-yl]amino}bicyclo[2.2.1]hept-5-ene-2-carboxamide]"
